Read-outs that look alike come from different tables or passages of the source.

From US20260199297A1, “FERROPTOSIS INDUCERS TO TREAT CANCER” (The University of Toledo, priority 2022, published 2026) come the findings set out here.

In data set [1] the test system is NCI-H522 cells. The data set is described as follows: Cytotoxicity (methylene blue cell viability), NCI-H522. In kind it is cell-based, human. The method, then: (§1) Having synthesized the CETZOLE analogs, their cytotoxic activity was evaluated. […] NCI-H522 RV-GFP is the corresponding control with RV-GFP tag, but without SLC7A11 overexpression. […] The cytotoxicity screening was conducted as described previously.
(§2) Cell lines were cultured in a humidified atmosphere containing 10% CO2 in Dulbecco's modified Eagle's medium (Mediatech, Inc) supplemented with 10% fetal bovine serum (Atlanta Biologicals). Cell types used MEFs, HT1080 (human fibrosarcoma cells), NARF2 (osteosarcoma), WI-38 (human embryonic lung fibroblast), MDA MB 231 (breast cancer), HCT-116 (human colon), and NCI-H522 (Non-Small Cell Lung Cancer) cell lines. To determine viability throughout these examples, 5,000 cells were plated per well of a 96-well plate and drugs were added 1 day later. Cells were stained 1 to 3 days later with a saturated solution of methylene blue in 50% ethanol. Plates were rinsed and retained dye was quantified by spectrophotometry. Absorbance was normalized to DMSO and given as 1 or 100% for cell viability. Results are representative of at least two independent experiments. Statistical significance was assessed using the Student's t test. All commercially available chemicals were obtained from Cayman Chemicals unless otherwise noted.

The subject of data set [2] is NCI-H522 GFP-SLC7A11 #8 cells. The data set is described as follows: Cytotoxicity (methylene blue cell viability), NCI-H522 clone overexpressing GFP-SLC7A11. In kind it is cell-based, human. As for the experimental part: as §1, §2
The test system of a further data set is NCI-H522 RV-GFP cells. The data set is described as follows: Cytotoxicity (methylene blue cell viability), NCI-H522 RV-GFP control clone. The data set is classed as cell-based, human. The note with it: Table 1, control clone with RV-GFP tag, read-out: Half maximal inhibitory concentration (IC50), NCI-H522 Rv-GFP. The method, then: as §1, §2
The subject of another data set is HT-1080 cells. The data set is described as follows: Cytotoxicity (methylene blue cell viability), HT-1080. The data set is classed as cell-based, human. As for the experimental part: as §1, §2
The next data set has as its system NARF2 cells. The data set is described as follows: Cytotoxicity (methylene blue cell viability), NARF2. The following applies: read-out: Half maximal inhibitory concentration (IC50), NARF2. In kind it is cell-based, human. As for the experimental part: as §1, §2
A further data set deals with MDA-MB-231 cells. The data set can be described thus: Cytotoxicity (methylene blue cell viability), MDA-MB-231. The data set is classed as cell-based. As for the experimental part:
as §1, §2

A further data set concerns WI38 cells. The data set is described as follows: Cytotoxicity on normal cell line WI38. The data set is classed as cell-based, human. The method, then: (§3) To determine cytotoxicity at a therapeutically more relevant concentration, cells were treated at a single concentration of […] (FIG. 12).
as §2

The subject of data set [3] is MEFs (Mouse Embryonic Fibroblasts). The data set is described as follows: Cytotoxicity on normal cell line MEFs. The note with it: read-out: Half maximal inhibitory concentration (IC50), Normal Cell Line Mefs. The data set is classed as cell-based. As for the experimental part:
as §3, §2

In data set [4] the test system is NCI-H522, NCI-H522 GFP-SLC7A11 #8, NCI-H522 RV-GFP, HT-1080, NARF2 and MDA-MB 231 cell lines. The data set is described as follows: Cytotoxicity screening across the tested cell lines. The following applies: summary over all tested cell lines; read-out: IC50 values against the tested cell lines. In kind it is cell-based. As for the experimental part:
as §1, §2

Data set [5] relates to NCI-H522 and HT-1080 cancer cell lines, WI38 and MEFs normal cell lines. The data set is described as follows: Selective cytotoxicity assay at a single concentration. The data set is classed as cell-based. Set-up: dose or concentration left out as unconfirmed. The following applies: NCI-H522, HT-1080, WI38, MEFs. As for the experimental part:
Overall, WI38 cells were the most tolerant to the treatment, whereas MEF cells were partially tolerant and relatively less sensitive than both NCI-H522 and HT-1080 cells. To determine cytotoxicity at a therapeutically more relevant concentration, cells were treated at a single concentration of […] (FIG. 12).
as §2, with “noted. Compound CETZOLE 1 and the analogs were synthesized as highlighted.” for “noted.”

The test system of data set [6] is protein bands between 25 kD to 38 kD. The data set can be described thus: Competitive binding assay against probe PPd (in-gel fluorescence). Also noted: competition of PPd-labelled protein bands, dose-dependent: dose or concentration left out as unconfirmed. The note with it: for competition of PPd-labelled protein bands by known ferroptosis inducers: 20 μM concentration, bands 25 kD to 38 kD.

The test system of data set [7] is NCI-H522 cells. The data set is classed as cell-based. The following applies: human, 3 days.
Description: FIGS. 10A-10C: Results of live cell imaging.
FIG. 16: Evaluation of ferroptosis-inducing character of CETZOLE probes. A three-day ferroptosis rescue assay of NCI-H522 cells treated with DMSO, 1, RSL3, and CETZOLE analogs, and liproxstatin-1 co-treatment, showing significant ferroptosis inducing probes.
The live cell montage images in FIG. 10A show notable ferroptosis-related morphological changes, such as membrane breakage and floating cell debris in the medium. The NCI-H522 cell viability improved overall when cells were co-treated with the radical scavenger liproxstatin-1 (FIG. 10C). […] To confirm this, flow-cytometry was performed to quantify lipid peroxidation using redox-active BODIPY-C11 (FIGS. 11A-11E).
Overall, CETZOLE probes do induce radical-mediated cell death and are therefore indeed ferroptotic agents.
as §2, with “noted. Compound CETZOLE 1 and the analogs were synthesized as highlighted.” for “noted.”

Data set [8] deals with NCI-H522 cells. The data set is described as follows: Flow cytometry BODIPY-C11 lipid ROS measurement. In kind it is cell-based, human. As for the experimental part: The total cell counts are represented by the area under the graph.
NCI-H522 cells were seeded at 1.5×10^5 cells per 9-cm plate. The next media was replaced with fresh media before treated with drugs along with BODIPY581/591-C11 dye (0.5 μM) (Thermo Fisher). […], and resuspended in 2% FBS containing 1×PBS. Cells were analyzed in FITC channel using a BD LSR Fortessa FAC Scanner. Twenty thousand events per condition were analyzed from three independent samples. The experiments were performed twice, each time with triplicate samples (n=6). Collected data were processed with FlowJo v10 software. Lipid ROS measurement in TR9-7 or NARF2 cells was performed similarly at the indicated conditions as mentioned in the respective figure legends. Where appropriate, dead cells were excluded by gating. When gates were applied, they were identical across samples within an experiment.

Where [9] appears, read: Homo sapiens, Table 1, NCI-H522 cancer cell line, read-out: Half maximal inhibitory concentration (IC50), NCI-H522.
Setting [10] is: Homo sapiens, Table 1, NCI-H522 clone overexpressing GFP-tagged SLC7A11, read-out: Half maximal inhibitory concentration (IC50), NCI-H522 GFP-SCL7A11 #8.
Setting [11] is: Homo sapiens, Table 1, HT-1080 fibrosarcoma cell line, read-out: Half maximal inhibitory concentration (IC50), HT-1080.
Where [12] appears, read: Homo sapiens, Table 1, NARF2 osteosarcoma cells.
Where [13] appears, read: Homo sapiens, Table 1, MDA-MB-231 breast cancer cell line, read-out: Half maximal inhibitory concentration (IC50), MDA-MB-231.

Turning to `COC(=O)c1ccc([C@@H]2c3[nH]c4ccccc4c3C[C@@H](C(=O)OC)N2C(=O)CCl)cc1` [RSL3, reference compound], the IC50 in the data set with NCI-H522 cells [1] (Table 1, NCI-H522 cancer cell line, read-out: Half maximal inhibitory concentration (IC50), NCI-H522) amounted to 1100 ± 890 nM; in the data set with NCI-H522 cells [1] (Table 2, read-out: Half maximal inhibitory concentration (IC50), Cancer Cell Line NCI-H522) it was 1100 ± 890 nM; in data set [2] (Table 1, NCI-H522 clone overexpressing GFP-tagged SLC7A11, read-out: Half maximal inhibitory concentration (IC50), NCI-H522 GFP-SCL7A11 #8) it was 2840 ± 900 nM; in the data set on NCI-H522 RV-GFP cells, 310 ± 40 nM; in the data set with HT-1080 cells (Table 1, HT-1080 fibrosarcoma cell line, read-out: Half maximal inhibitory concentration (IC50), HT-1080), 140 ± 80 nM; in the data set on HT-1080 cells (Table 2, read-out: Half maximal inhibitory concentration (IC50), Cancer Cell Line HT1080) it was 140 ± 100 nM. Further, the IC50 in the data set on NARF2 cells (Table 1, NARF2 osteosarcoma cells) is 2460 ± 760 nM; in the data set with MDA-MB-231 cells (Table 1, MDA-MB-231 breast cancer cell line, read-out: Half maximal inhibitory concentration (IC50), MDA-MB-231) it was 220 ± 20 nM; with WI38 cells (Table 2, lung tissue fibroblast, read-out: Half maximal inhibitory concentration (IC50), Normal Cell Line WI38), 50 ± 10 nM; in data set [3] (Table 2, Mouse Embryonic Fibroblasts), 40 ± 20 nM; in data set [4], 140 to 2840 nM. Besides, in data set [5], the “cell death at a single concentration” value is “killed all cell lines indiscriminately”. Moreover, in [6], the “competition of PPd-labelled protein bands by known ferroptosis inducers” value is “compete out the same protein bands”.

As to `C#Cc1nc(C2=C(C)C(OC(=O)CCCCCCC)/C(=N/OC(=O)CCCCCCC)C2)cs1` (centres unmarked) [compound 20e, (E)-3-(2-Ethynylthiazol-4-yl)-2-methyl-5-((octanoyloxy)imino)cyclopent-2-en-1-yl octanoate], the IC50 is over 20000 nM in the data set with NCI-H522 cells [1] (setting [9]); over 20000 nM in data set [2] (setting [10]); over 20000 nM with NCI-H522 RV-GFP cells (Homo sapiens, NCI-H522); over 20000 nM in the data set with HT-1080 cells (setting [11]); over 20000 nM in the data set on NARF2 cells (setting [12]); 19100 ± 2800 nM with MDA-MB-231 cells (setting [13]). Besides, the IC50 in data set [4] is over 20000 nM.

Regarding `C#CCCC(=O)Nc1ccc(C(=O)c2ccc(NC(=O)CO/N=C3\CC(c4csc(C#C)n4)=C(C)C3O)cc2)cc1` (centres unmarked) [PPe, (E)-N-(4-(4-(2-(((4-(2-Ethynylthiazol-4-yl)-2-hydroxy-3-methylcyclopent-3-en-1-ylidene)amino)oxy)acetamido)benzoyl)phenyl)pent-4-ynamide], the IC50 came to 2600 ± 110 nM in the data set on NCI-H522 cells [1] (Homo sapiens, NCI-H522, Table 3, probes and negative controls, read-out: IC50, NCI-H522); 1200 ± 10 nM in the data set with HT-1080 cells (Homo sapiens, HT-1080, Table 3, probes and negative controls, read-out: IC50, HT-1080); 1330 ± 20 nM in the data set on MDA-MB-231 cells (Homo sapiens, MDA-MB-231, Table 3, probes and negative controls, read-out: IC50, MDA-MB-231). Further, the “cell viability on liproxstatin-1 co-treatment (rescue)” value with NCI-H522 cells [7] stood at 45%.

As for `C#Cc1nc(C2=C(C)C(O)CC2)cs1` (racemic) [CETZOLE 1, 3-(2-Ethynylthiazol-4-yl)-2-methylcyclopent-2-en-1-ol, reference compound], the IC50 was found to be 2500 ± 320 nM with NCI-H522 cells [1] (Homo sapiens, NCI-H522, read-out: Half maximal inhibitory concentration (IC50), Cancer Cell Line NCI-H522); 2560 ± 930 nM in the data set on NCI-H522 cells [1] (Homo sapiens, NCI-H522, read-out: Half maximal inhibitory concentration (IC50), NCI-H522); 2500 ± 320 nM in the data set on NCI-H522 cells [1] (Homo sapiens, NCI-H522, read-out: IC50, NCI-H522); 10300 ± 3600 nM in data set [2] (Homo sapiens, NCI-H522, read-out: Half maximal inhibitory concentration (IC50), NCI-H522 GFP-SCL7A11 #8); 3070 ± 1300 nM with HT-1080 cells (Homo sapiens, HT-1080, read-out: Half maximal inhibitory concentration (IC50), Cancer Cell Line HT1080); 3070 ± 1300 nM in the data set with HT-1080 cells (Homo sapiens, HT-1080, read-out: Half maximal inhibitory concentration (IC50), HT-1080). The IC50 with HT-1080 cells (Homo sapiens, HT-1080, read-out: IC50, HT-1080) was found to be 960 ± 110 nM; with NARF2 cells (Homo sapiens), 14900 ± 1300 nM; in the data set with MDA-MB-231 cells (Homo sapiens, MDA-MB-231, read-out: Half maximal inhibitory concentration (IC50), MDA-MB-231) it was 6280 ± 730 nM; with MDA-MB-231 cells (Homo sapiens, MDA-MB-231, read-out: IC50, MDA-MB-231), 3200 ± 200 nM; in the data set with WI38 cells (Homo sapiens, WI-38, read-out: Half maximal inhibitory concentration (IC50), Normal Cell Line WI38), 2510 ± 40 nM; in data set [3] (Mus musculus, Fibroblast) it was 2410 ± 980 nM. Also, in the data set on NCI-H522 cells [8] (NCI-H522), the “speed of cell death (area under graph)” value is listed as “induced slower cell death”. Moreover, in the data set on NCI-H522 cells [8] (NCI-H522, BODIPY-C11, 3 hours), the “lipid peroxidation compared to DMSO” value is given as “induced lipid peroxidation”. Further, the “competition of PPd-labelled protein bands by known ferroptosis inducers” value in [6] is “compete out the same protein bands”. Besides, the “competition of PPd-labelled protein bands, dose-dependent” value in data set [6] (three bands 25 kD to 38 kD) is on record as “completely competed out”.

With `C#Cc1nc(C2=C(C)C(=O)/C(=N/O)C2)cs1` [compound 14, (E)-3-(2-Ethynylthiazol-4-yl)-5-(hydroxyimino)-2-methylcyclopent-2-en-1-one], the IC50 is over 20000 nM in the data set on NCI-H522 cells [1] (setting [9]); over 20000 nM in [2] (setting [10]); over 20000 nM in the data set with NCI-H522 RV-GFP cells (Homo sapiens, NCI-H522); 5290 ± 2600 nM in the data set on HT-1080 cells (setting [11]); over 20000 nM in the data set on NARF2 cells (setting [12]); 8050 ± 630 nM in the data set with MDA-MB-231 cells (setting [13]). In addition, in data set [4], the IC50 was over 20000 nM.
